Assay [1] concerns the target Recombinant human His-tagged Kat6a protein (amino acids 194-810) (Homo sapiens (Human), UniProt Q92794). Description: Kat6a activity assay (TR-FRET, acetylation of biotinylated Histone-H4-derived peptide). The conditions noted are these: 60 mins at 22° C., read-out: KAT6A-DPF/HAT domain IC50 [mol/l] (arithmetic mean). Type of assay: biochemical. The essentials: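 Sf9-expressed human His-Kat6a (aa 194-810) incubated 60 min at 22 °C with compounds (0.01-20 μM) in Tris pH 8 buffer containing 220 nM biotinylated H4 peptide (aa 1-24) and 600 nM acetyl-CoA. Acetyl-K8 detected by TR-FRET (665/620 nm ratio); IC50 by four-parameter fit versus DMSO controls.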
(In general: In TR-FRET formats the signal depends on donor and acceptor labels being close together.)

Assay [2] has as its target Recombinant human GST-tagged Kat6b protein (431-end). The assay is described as follows: Kat6b activity assay (TR-FRET, acetylation of biotinylated Histone-H4-derived peptide). Type of assay: biochemical. To be noted: 30 mins at 22° C., read-out: KAT6B activity assay IC50 [mol/l] (arithmetic mean). As for the experimental part:
Kat6b inhibitory activities of the compounds described in the present invention were quantified using a Fluorescence Resonance Energy Transfer (TR-FRET) assay which measures acetylation of a synthetic, biotinylated Histone-H4-derived peptide by the enzyme.
In this case 50 nl DMSO were used instead of compounds. […] IC50 values were determined by regression analysis based on a 4 parameter equation (minimum, maximum, ICM, Hill; Y=Max+(Min−Max)/(1+(X/ICso) Hill) using the Screener Software (Genedata).

A further assay relates to ZR-75-1 cells. The assay is described as follows: Proliferation assay ZR-75-1 (Alamar Blue, 144 h). Type of assay: cell-based. To be noted: Homo sapiens, ZR-75-1, 144 h, arithmetic mean, read-out: ZR75-1 proliferation assay, EC50 [M] (arithmetic mean). The procedure, abridged: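 Cells seeded at 3000/well in RPMI 1640 with 2.5% FBS and treated 24 h later across 2.0×10E-5 to 2.0×10E-9 M (9 dilutions, 0.2% DMSO, triplicate). After 144 h at 37 °C, 5% CO2, viability read by Alamar Blue fluorescence at 590 nm following 2 h reagent incubation.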
A general note: Resazurin is reduced to fluorescent resorufin, in cell work by metabolically active cells.

A further assay has as its system MDA-MB-436 cells. The assay is described as follows: Proliferation assay MDA-MB-436, negative control cell line (Alamar Blue, 144 h). To be noted: Homo sapiens, MDA-MB-436, 144 h, arithmetic mean. The format is cell-based. The procedure, abridged:
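MDA-MB-436 cells (3000/well, DMEM/Ham's F12 with 2.5% FBS) treated 24 h after plating with compounds at 2.0×10E-5 to 2.0×10E-9 M (9 dilutions, 0.2% DMSO), triplicates, 144 h at 37 °C, 5% CO2. Viability by Alamar Blue, 2 h, fluorescence at 590 nm.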

Assay [3] relates to ESR1 transcription (luciferase signal in MVLN cells). Description: Repression of ESR1 transcription, luciferase reporter in MVLN cells. The conditions noted are these: Homo sapiens, MVLN, inhibition of luciferase signal in MVLN cells; arithmetic mean. Type of assay: cell-based. The procedure, abridged: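 MVLN cells (constitutive ER, stably carrying a Vitellogenin A2 hormone-responsive element–luciferase reporter) treated in duplicate; luciferase read after 24 h. Cell density checked by Alamar Blue fluorescence (530/590 nm) after 2 h to exclude cell-loss effects.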
Background: Reporter assays use an easily measured gene product as a stand-in for the process of interest.

Each structure is given as a SMILES string.

Chain of Recombinant human His-tagged Kat6a protein (amino acids 194-810) (Q92794 194-810): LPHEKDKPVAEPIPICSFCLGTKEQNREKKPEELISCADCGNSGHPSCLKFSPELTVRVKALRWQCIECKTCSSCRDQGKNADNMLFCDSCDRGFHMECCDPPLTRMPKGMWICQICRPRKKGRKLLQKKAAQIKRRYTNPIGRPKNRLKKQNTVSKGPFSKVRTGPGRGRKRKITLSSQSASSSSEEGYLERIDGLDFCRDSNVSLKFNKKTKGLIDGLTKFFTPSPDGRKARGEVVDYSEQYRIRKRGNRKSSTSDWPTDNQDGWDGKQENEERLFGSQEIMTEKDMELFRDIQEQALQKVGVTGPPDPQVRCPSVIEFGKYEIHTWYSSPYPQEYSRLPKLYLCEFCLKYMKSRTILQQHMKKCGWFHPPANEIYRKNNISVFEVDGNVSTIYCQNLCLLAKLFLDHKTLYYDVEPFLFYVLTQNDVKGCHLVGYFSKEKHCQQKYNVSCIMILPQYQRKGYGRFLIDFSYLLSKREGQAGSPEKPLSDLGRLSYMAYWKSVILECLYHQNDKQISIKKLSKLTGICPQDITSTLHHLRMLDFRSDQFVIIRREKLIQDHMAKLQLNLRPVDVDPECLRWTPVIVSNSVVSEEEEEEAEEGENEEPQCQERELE

`CN(C)c1ccc2cc(C(=O)NS(=O)(=O)c3ccccc3OC(F)(F)F)oc2c1` [Example 31, 6-(Dimethylamino)-N-[2-(trifluoromethoxy)benzene-1-sulfonyl]-1-benzofuran-2-carboxamide]: the IC50 in assay [1] amounted to 53 nM; in assay [2], 59.1 nM. For the same compound, the EC50 in the assay on ZR-75-1 cells is 8.14e-08 M; in the assay on MDA-MB-436 cells, greater than 20000 nM.
Regarding `CN(C)c1ccc2cc(C(=O)NS(=O)(=O)c3cccc4c3OCC4)oc2c1` [Example 30, N-(2,3-Dihydro-1-benzofuran-7-sulfonyl)-6-(dimethylamino)-1-benzofuran-2-carboxamide], the figures for the IC50 in assay [1], in assay [2] and in assay [3] were 137 nM, 497 nM and greater than 20000 nM, respectively.
As for `Cc1cc(Cl)c2cccc(S(=O)(=O)NC(=O)c3cc4ccc(N(C)C)cc4o3)c2n1` [Example 83, N-(4-Chloro-2-methylquinoline-8-sulfonyl)-6-(dimethylamino)-1-benzofuran-2-carboxamide], the IC50 in assay [1] turned out to be 48.8 nM; in assay [2] it was 55.4 nM; in assay [3], 209 nM. Also, in the assay on ZR-75-1 cells, the EC50 was found to be 1.13e-06 M.
With `COc1cc(C)ccc1S(=O)(=O)NC(=O)c1cc2ccc(N(C)C)cc2o1` [Example 127, 6-(Dimethylamino)-N-(2-methoxy-4-methylbenzene-1-sulfonyl)-1-benzofuran-2-carboxamide], the IC50 in assay [1] was determined as 71.2 nM; in assay [2], 56.2 nM; in assay [3], 62.5 nM. Also, the EC50 in the assay on MDA-MB-436 cells is greater than 20000 nM.
Regarding `CN(C)c1cc(F)c2cc(C(=O)NS(=O)(=O)c3ccccc3-c3ccccc3)oc2c1` [Example 12, N-([1,1′-Biphenyl]-2-sulfonyl)-6-(dimethylamino)-4-fluoro-1-benzofuran-2-carboxamide], the IC50 stood at 13.3 nM in assay [1], 18.2 nM in assay [2] and 61.7 nM in assay [3]. In the assay on ZR-75-1 cells, the EC50 turned out to be 5.72e-08 M.
With `CN(C)c1ccc2cc(C(=O)NS(=O)(=O)c3ccccc3C#N)oc2c1` [Example 33, N-(2-Cyanobenzene-1-sulfonyl)-6-(dimethylamino)-1-benzofuran-2-carboxamide], the IC50 was 2720 nM in assay [1] and greater than 20000 nM in assay [2]. Moreover, the figures for the EC50 in the assay on ZR-75-1 cells and with MDA-MB-436 cells were 6.26e-06 M and greater than 20000 nM, respectively.
`CN(C)c1ccc2cc(C(=O)NS(=O)(=O)c3ccccc3F)oc2c1` [Example 34, 6-(Dimethylamino)-N-(2-fluorobenzene-1-sulfonyl)-1-benzofuran-2-carboxamide]: the IC50 in assay [1] was 417 nM; in assay [2] it was 504 nM. Further, the figures for the EC50 in the assay on ZR-75-1 cells and with MDA-MB-436 cells were 5.78e-07 M and greater than 20000 nM, respectively.
For the compound `CN(C)c1ccc2cc(C(=O)NS(=O)(=O)c3ccccc3-c3ccccc3)sc2c1` [Example 48, N-([1,1′-Biphenyl]-2-sulfonyl)-6-(dimethylamino)-1-benzothiophene-2-carboxamide], the IC50 was determined as 310 nM in assay [1], 450 nM in assay [2] and 785 nM in assay [3]. The compound also displayed an EC50 in the assay with MDA-MB-436 cells greater than 20000 nM.
Regarding `CC(C)c1ccc(OCC2CC2)c(S(=O)(=O)NC(=O)c2cc3ccc(N(C)C)cc3o2)c1` [Example 177, N-[2-(cyclopropylmethoxy)-5-isopropyl-phenyl]sulfonyl-6-(dimethylamino)benzofuran-2-carboxamide], the IC50 in assay [1] came out at 7.91 nM; in assay [2], 24 nM; in assay [3], 29.1 nM. Also, the EC50 in the assay with ZR-75-1 cells came out at 6.97e-08 M.
The corresponding values for `CN(C)c1ccc2cc(C(=O)NS(=O)(=O)c3ccc(-c4ccccc4)cc3)oc2c1` [Example 15, N-([1,1′-biphenyl]-4-sulfonyl)-6-(dimethylamino)-1-benzofuran-2-carboxamide] are 112 nM, 235 nM, 5000 nM and 4.28e-06 M.
On to `CC(C)Oc1ccccc1S(=O)(=O)NC(=O)c1cc2c(F)cc(N(C)C)cc2o1` [Example 109, 6-(Dimethylamino)-4-fluoro-N-{2-[(propan-2-yl)oxy]benzene-1-sulfonyl}-1-benzofuran-2-carboxamide], for which the IC50 in assay [1] was 7.09 nM; in assay [3], 9.67 nM. Also, the EC50 is 3.7e-08 M in the assay on ZR-75-1 cells and greater than 20000 nM in the assay on MDA-MB-436 cells.
The corresponding values for `CN(C)c1ccc2cc(C(=O)NS(=O)(=O)c3ccccc3-c3ccccc3)oc2c1F` [Example 192, N-([1,1′-biphenyl]-2-ylsulfonyl)-6-(dimethylamino)-7-fluorobenzofuran-2-carboxamide] are 2980 nM, 16400 nM, greater than 2e-05 M and greater than 20000 nM.
The corresponding values for `CN1Cc2cccc(S(=O)(=O)NC(=O)c3cc4ccc(N(C)C)cc4o3)c2C1=O` [Example 95, 6-(Dimethylamino)-N-(2-methyl-3-oxo-2,3-dihydro-1H-isoindole-4-sulfonyl)-1-benzofuran-2-carboxamide] are 150 nM, 488 nM, 7.18e-07 M and greater than 20000 nM.
In the case of `CN(c1ccccc1)c1ccc2cc(C(=O)NS(=O)(=O)c3ccccc3-c3ccccc3)oc2c1` [Example 10, 6-(N-Methylanilino)-N-(2-phenylphenyl)sulfonyl-benzofuran-2-carboxamide], the IC50 was 900 nM in assay [1], 1490 nM in assay [2] and 13600 nM in assay [3].
With `Cc1ccc2cccc(S(=O)(=O)NC(=O)c3cc4cc(Br)c(N(C)C)cc4o3)c2n1` [Example 216, 5-Bromo-6-(dimethylamino)-N-(2-methylquinoline-8-sulfonyl)-1-benzofuran-2-carboxamide], the IC50 was 2050 nM in assay [1] and greater than 20000 nM in assay [3]. The EC50 is greater than 2e-05 M with ZR-75-1 cells and greater than 20000 nM with MDA-MB-436 cells.
Regarding `CCc1ncnc(OC)c1S(=O)(=O)NC(=O)c1cc2ccc(N(C)C)cc2o1` [Example 131, 6-(Dimethylamino)-N-(4-ethyl-6-methoxypyrimidine-5-sulfonyl)-1-benzofuran-2-carboxamide], the IC50 came out at 470 nM in assay [1] and 325 nM in assay [3]. Moreover, the EC50 was 8.31e-07 M with ZR-75-1 cells and greater than 20000 nM in the assay with MDA-MB-436 cells.
For `COc1cccc(S(=O)(=O)N(C)C)c1S(=O)(=O)NC(=O)c1cc2ccc(N(C)C)cc2o1` [Example 141, 6-(Dimethylamino)-N-[2-(dimethylsulfamoyl)-6-methoxybenzene-1-sulfonyl]-1-benzofuran-2-carboxamide], in that order: 317 nM, 1760 nM, 1.92e-06 M and greater than 20000 nM.
For `CC(C)Oc1ccc(C(C)(C)C)cc1S(=O)(=O)NC(=O)c1cc2ccc(N(C)C)cc2o1` [Example 183, N-((5-(tert-butyl)-2-isopropoxyphenyl)sulfonyl)-6-(dimethylamino)benzofuran-2-carboxamide], in that order: 15.4 nM, 45.5 nM, 7.53e-08 M and greater than 20000 nM.
The corresponding values for `CCOc1ccccc1S(=O)(=O)NC(=O)c1cc2cc(C#N)c(N(C)C)cc2o1` [Example 204, 5-Cyano-6-(dimethylamino)-N-(2-ethoxybenzene-1-sulfonyl)-1-benzofuran-2-carboxamide] are 2590 nM, 5800 nM, 6.4e-06 M and greater than 20000 nM.
As for `CN(C)c1ccc2cc(C(=O)NS(=O)(=O)c3ccccc3OCCOCCOCCOCCNc3ccc([N+](=O)[O-])c4nonc34)oc2c1` [Example 168, 6-(Dimethylamino)-N-(2-{2-[2-(2-{2-[(7-nitro-2,1,3-benzoxadiazol-4-yl)amino]ethoxy}ethoxy)ethoxy]ethoxy}benzene-1-sulfonyl)-1-benzofuran-2-carboxamide], the IC50 in assay [1] stood at 128 nM; in assay [3] it was 8600 nM. The EC50 is 1.24e-05 M in the assay with ZR-75-1 cells and greater than 20000 nM with MDA-MB-436 cells.
As to `CC(C)Nc1ncc(Br)cc1S(=O)(=O)NC(=O)c1cc2ccc(N(C)C)cc2o1` [Example 145, N-{5-Bromo-2-[(propan-2-yl)amino]pyridine-3-sulfonyl}-6-(dimethylamino)-1-benzofuran-2-carboxamide], the IC50 turned out to be 438 nM in assay [1] and 6800 nM in assay [3]. The EC50 is 7.2e-06 M in the assay on ZR-75-1 cells and greater than 20000 nM in the assay with MDA-MB-436 cells.

These data come from patent US12357603B2, “Acyl sulfonamides for treating cancer” (Bayer Aktiengesellschaft, priority 2019, dated 2025).
